Assay results from the supplement of paper PMC10307832.

Assays:
Experiment in all cases: relative viability (nuclei count vs DMSO), 5 days (fraction); higher = more cells survive
Dabrafenib + Olaparib = compound: CC(C)(C)c1nc(-c2cccc(NS(=O)(=O)c3c(F)cccc3F)c2F)c(-c2ccnc(N)n2)s1 [Dabrafenib] + O=C(c1cc(Cc2n[nH]c(=O)c3ccccc23)ccc1F)N1CCN(C(=O)C2CC2)CC1 [Olaparib] (partner 8 µM)
Summary of the method: (§1)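 One day after seeding in 1536-well plates, lung cancer cell lines were dosed by pin tool. Dosing was either single-drug or a fixed anchor-drug dose plus five library-drug doses (not always all listed) in √10 steps. After 5 days, nuclei were stained in one fix-and-stain step and counted on 4× images, and relative viability is the nuclei count of treated wells over that of vehicle wells, given as the median of duplicate plates.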

VX-702 + Tozasertib = compound: NC(=O)c1ccc(N(C(N)=O)c2c(F)cccc2F)nc1-c1ccc(F)cc1F [VX-702] + Cc1cc(Nc2cc(N3CCN(C)CC3)nc(Sc3ccc(NC(=O)C4CC4)cc3)n2)n[nH]1 [Tozasertib] (partner 0.1 µM)
Summary of the method: as §1

VX-702 + Decitabine = compound: NC(=O)c1ccc(N(C(N)=O)c2c(F)cccc2F)nc1-c1ccc(F)cc1F [VX-702] + Nc1ncn([C@H]2C[C@H](O)[C@@H](CO)O2)c(=O)n1 [Decitabine] (partner 2 µM)
Summary of the method: as §1

Dabrafenib + Lapatinib = compound: CC(C)(C)c1nc(-c2cccc(NS(=O)(=O)c3c(F)cccc3F)c2F)c(-c2ccnc(N)n2)s1 [Dabrafenib] + CS(=O)(=O)CCNCc1ccc(-c2ccc3ncnc(Nc4ccc(OCc5cccc(F)c5)c(Cl)c4)c3c2)o1 [Lapatinib] (partner 2 µM)
Summary of the method: as §1

Cell Line	relative viability (Dabrafenib + Olaparib; first compound 0.003 µM)	relative viability (Dabrafenib + Olaparib; first compound 0.009487 µM)	relative viability (Dabrafenib + Olaparib; first compound 0.03 µM)	relative viability (Dabrafenib + Olaparib; first compound 0.09487 µM)	relative viability (Dabrafenib + Olaparib; first compound 0.3 µM)	relative viability (VX-702 + Tozasertib; first compound 0.02 µM)	relative viability (VX-702 + Tozasertib; first compound 0.2 µM)	relative viability (VX-702 + Tozasertib; first compound 0.6325 µM)	relative viability (VX-702 + Tozasertib; first compound 2 µM)	relative viability (VX-702 + Decitabine; first compound 0.02 µM)	relative viability (VX-702 + Decitabine; first compound 0.2 µM)	relative viability (VX-702 + Decitabine; first compound 0.6325 µM)	relative viability (VX-702 + Decitabine; first compound 2 µM)	relative viability (Dabrafenib + Lapatinib; first compound 0.003 µM)	relative viability (Dabrafenib + Lapatinib; first compound 0.009487 µM)	relative viability (Dabrafenib + Lapatinib; first compound 0.03 µM)	relative viability (Dabrafenib + Lapatinib; first compound 0.09487 µM)	relative viability (Dabrafenib + Lapatinib; first compound 0.3 µM)
201T	0.87	0.836	0.762	0.811	0.841	0.959	0.921	0.937	0.914	0.86	0.838	0.871	0.886	1.06	1.04	1.01	1.03	1.09
A549	–	0.34	0.293	0.112	0.317	–	–	–	–	0.303	0.249	0.332	0.177	0.899	1.06	1.07	1	1.04
A-427	0.704	0.685	0.707	0.658	0.726	0.241	0.169	0.232	0.221	0.623	0.503	0.54	0.542	–	1.06	0.878	0.793	1.05
ABC-1	–	0.707	0.953	0.849	1.26	0.152	0.162	0.18	0.207	0.923	1.09	1.09	1.31	1.14	1.24	1.3	1.2	1.05
BEN	–	1.24	–	1.02	1.18	0.532	0.432	0.481	0.55	0.724	0.646	0.694	0.776	–	0.805	–	0.81	0.841
CAL-12T	0.657	0.685	0.671	0.574	0.76	0.369	0.31	0.273	0.398	–	–	–	–	0.709	0.74	0.683	0.639	0.789
COR-L23	0.394	0.291	0.312	0.325	0.324	0.202	0.231	0.171	0.244	0.518	0.521	0.435	0.525	0.984	1.1	0.92	0.874	0.913
COR-L 105	0.685	0.793	0.702	0.599	0.799	0.225	0.338	0.353	0.355	0.619	0.722	0.696	0.636	0.273	0.367	0.3	0.375	0.426
Calu-6	0.569	0.556	0.482	0.303	0.481	–	–	–	–	–	–	–	–	1.18	1.03	0.911	0.848	0.886
ChaGo-K-1	0.458	0.413	0.404	0.312	0.455	0.214	0.23	0.223	0.225	0.532	0.493	0.516	0.525	–	–	–	–	–
EBC-1	0.686	0.691	0.664	0.39	0.474	–	–	–	–	–	–	–	–	–	0.233	0.223	0.23	0.274
EKVX	–	0.763	0.766	0.641	0.966	0.381	0.36	0.379	0.423	0.425	0.29	0.303	0.276	0.172	0.245	0.192	0.203	0.321
EMC-BAC-2	–	0.444	0.433	0.336	0.388	0.349	0.278	0.272	0.304	0.969	0.962	0.944	0.885	0.87	0.775	0.877	0.926	0.916
EPLC-272H	0.784	0.931	0.717	0.749	0.964	0.345	0.235	0.418	0.289	0.353	0.373	0.374	0.403	–	0.882	1	0.765	1.18
H3255	0.632	0.568	0.626	0.573	0.595	0.576	0.792	0.655	0.8	0.541	–	0.671	0.625	0.186	0.264	0.213	0.316	0.247
HARA	–	0.971	0.799	0.647	1.12	0.113	0.0909	0.118	0.117	0.567	–	0.512	0.523	0.648	0.683	0.565	0.751	0.955
HCC-15	0.716	0.673	0.743	0.578	0.63	0.402	0.322	0.408	0.53	0.656	0.586	0.627	0.647	0.788	0.809	0.891	0.739	0.732
HCC-44	0.952	1.03	1.08	1	0.956	0.765	0.893	1.05	1.3	1	0.969	1.02	0.924	0.996	0.982	1.11	0.86	0.964
HCC-78	–	0.847	0.733	0.452	0.915	0.42	0.456	0.325	0.465	0.744	0.669	0.715	0.665	–	0.697	0.702	0.754	0.838
HCC-366	0.381	0.337	0.271	0.329	0.39	0.156	0.095	0.0851	0.0835	0.331	0.305	0.353	0.266	–	1.08	0.776	1.05	1.2
HCC-827	0.65	0.79	0.62	–	0.671	0.427	0.396	0.387	0.393	0.295	0.31	0.337	0.189	0.133	0.228	0.185	0.185	0.186
HOP-62	–	0.297	0.388	–	0.386	0.474	0.37	0.41	0.373	0.209	0.166	0.206	0.196	–	1.07	0.822	0.889	0.784

Cell Line	relative viability (Dabrafenib + Olaparib; first compound 0.003 µM)	relative viability (Dabrafenib + Olaparib; first compound 0.009487 µM)	relative viability (Dabrafenib + Olaparib; first compound 0.03 µM)	relative viability (Dabrafenib + Olaparib; first compound 0.09487 µM)	relative viability (Dabrafenib + Olaparib; first compound 0.3 µM)	relative viability (VX-702 + Tozasertib; first compound 0.02 µM)	relative viability (VX-702 + Tozasertib; first compound 0.2 µM)	relative viability (VX-702 + Tozasertib; first compound 0.6325 µM)	relative viability (VX-702 + Tozasertib; first compound 2 µM)	relative viability (VX-702 + Decitabine; first compound 0.02 µM)	relative viability (VX-702 + Decitabine; first compound 0.2 µM)	relative viability (VX-702 + Decitabine; first compound 0.6325 µM)	relative viability (VX-702 + Decitabine; first compound 2 µM)	relative viability (Dabrafenib + Lapatinib; first compound 0.003 µM)	relative viability (Dabrafenib + Lapatinib; first compound 0.009487 µM)	relative viability (Dabrafenib + Lapatinib; first compound 0.03 µM)	relative viability (Dabrafenib + Lapatinib; first compound 0.09487 µM)	relative viability (Dabrafenib + Lapatinib; first compound 0.3 µM)
IA-LM	0.873	0.743	0.831	0.687	0.554	–	–	–	–	–	–	–	–	0.774	0.7	0.835	0.689	0.464
LC-2-ad	0.69	0.668	0.709	0.647	0.698	0.375	0.4	0.465	0.497	0.849	0.807	0.821	0.776	0.862	1.01	0.976	0.886	0.925
LCLC-97TM1	–	0.317	0.472	0.262	0.35	0.175	0.183	0.301	0.252	0.241	0.232	0.232	0.228	–	1.19	0.994	–	0.916
LCLC-103H	0.716	0.733	0.687	0.801	0.747	0.405	0.355	0.456	0.541	0.733	0.735	0.685	0.746	–	–	–	–	–
LK-2	0.737	0.706	–	0.498	0.796	0.153	0.173	0.157	0.168	0.26	0.329	0.218	0.318	0.885	1.02	–	0.902	0.985
LOU-NH91	–	0.923	0.918	0.889	0.969	0.75	0.657	0.677	0.628	0.837	0.832	0.815	0.766	–	0.789	0.683	0.772	0.802
LU99A	0.296	0.278	0.257	0.236	0.272	0.315	0.25	0.257	0.263	0.93	0.869	0.93	0.872	0.974	0.971	0.994	0.852	0.751
LXF-289	1.1	1.12	1.07	0.892	1.07	0.208	0.188	0.214	0.175	0.313	0.403	0.381	0.357	0.867	0.907	1.11	1	1.09
NCI-H23	–	0.312	0.3	0.292	0.329	0.446	0.334	0.37	0.486	0.322	0.35	0.321	0.317	–	1.21	1.08	0.712	1.02
NCI-H322M	–	0.8	–	0.745	0.736	0.486	0.506	0.496	0.508	0.67	0.668	0.765	0.745	–	0.657	–	0.584	0.559
NCI-H358	0.647	0.697	0.546	0.538	0.406	0.0998	0.0877	0.0872	0.115	0.204	0.333	0.244	0.223	–	0.53	0.369	0.446	0.465
NCI-H441	–	0.609	0.609	0.334	0.588	0.722	0.546	0.478	0.641	0.238	0.258	0.251	0.212	–	–	–	–	–
NCI-H460	0.493	0.398	0.397	0.362	0.385	0.665	0.54	0.614	0.159	0.522	0.494	0.599	0.469	1.04	1.03	1.05	0.925	0.83
NCI-H522	–	0.788	0.59	0.642	0.633	0.522	0.551	0.502	0.588	0.684	0.775	0.646	0.753	–	–	–	–	–
NCI-H1299	0.932	0.886	0.902	0.884	0.794	–	–	–	–	–	–	–	–	1.01	0.952	0.957	0.932	0.824
NCI-H1563	–	–	–	–	–	–	–	–	–	–	–	–	–	0.831	1.06	0.633	0.928	0.938
NCI-H1623	–	–	–	–	–	0.444	0.415	0.437	0.426	–	–	–	–	–	–	–	–	–
NCI-H1648	1.01	0.98	–	0.523	0.765	0.419	0.42	0.397	0.426	0.443	0.457	0.469	0.481	–	–	–	–	–
NCI-H1703	0.602	0.548	0.326	0.341	0.395	–	–	–	–	–	–	–	–	1.2	1.6	0.938	0.896	1.09
NCI-H1792	–	0.522	0.25	0.324	0.417	–	–	–	–	0.555	0.614	0.491	0.532	–	0.881	0.813	0.792	0.912
NCI-H2228	0.757	0.464	0.615	0.439	0.693	0.314	0.319	0.199	0.23	–	–	–	–	0.856	1.2	1.01	1.01	1.14
NCI-H2342	0.42	0.435	0.401	0.454	0.541	0.527	0.468	0.484	0.524	0.788	0.821	0.697	0.754	–	–	–	–	–
